From ChEMBL document CHEMBL4725408, “Antibacterial Spiropyrimidinetriones with N-Linked Azole Substituents on a Benzisoxazole Scaffold Targeting DNA Gyrase” (J Med Chem, 2020)
pIC50: −log10 of the molar value. In brackets after ≈: the same amount, converted by molar mass. Activity calls are given as the source filed them. The calls are words filed in the database; no cut-off is given here.

Columns and labels:
[1] = Unbound plasma clearance in CD-1 mouse at 3 mg/kg, iv administered as 15 mins infusion by LC-MS/MS analysis; format: ADME, organism-based; settings: in vivo, 0.25 h
[2] = Oral bioavailability in CD-1 mouse at 10 mg/kg by LC-MS/MS analysis; format: ADME, organism-based; settings: in vivo
Streptococcus pneumoniae = assay: Antibacterial activity against Streptococcus pneumoniae ARC548 by broth microdilution method; format: functional
Staphylococcus aureus [3] = assay: Antibacterial activity against methicillin sensitive Staphylococcus aureus ARC516 in presence of human serum by broth microdilution method; format: functional
Staphylococcus aureus [4] = assay: Antibacterial activity against methicillin sensitive Staphylococcus aureus ARC516 infected in CD-1 mouse neutropenic thigh infection model assessed as log reduction in colony forming unit at 150 mg/kg, ip measured after 24 hrs relative to untreated control; format: functional
Escherichia coli = assay: Antibacterial activity against Escherichia coli ARC523 by broth microdilution method; format: functional
[5] = Solubility of the compound by high throughput solubility assay; format: physicochemical
[6] = Half life in CD-1 mouse at 3 mg/kg, iv administered as 15 mins infusion by LC-MS/MS analysis; format: ADME, organism-based; settings: in vivo
Staphylococcus aureus [7] = assay: Antibacterial activity against methicillin sensitive Staphylococcus aureus ARC516 infected in CD-1 mouse neutropenic thigh infection model assessed as log reduction in colony forming unit at 25 to 150 mg/kg, ip measured after 12 hrs relative to initial treatment control; format: functional; settings: dose mg/kg 25-150
[8] = Unbound plasma clearance in Wistar Han rat at 3 mg/kg, iv administered as 15 mins infusion by LC-MS/MS analysis; format: ADME, organism-based; set-up: unit not given here; settings: in vivo, 0.25 h
[9] = Inhibition of recombinant Escherichia coli DNA gyrase AB expressed in Escherichia coli BL21 (DE3) using relaxed pJT519 DNA as substrate preincubated for 20 mins followed by 5'-BODIPY-TMR-TTCTTCTTCT addition and measured after 1 hr by fluorescence anisotropy
[10] = Oral bioavailability in Wistar Han rat at 10 mg/kg by LC-MS/MS analysis; format: ADME, organism-based; settings: in vivo
Haemophilus influenzae = assay: Antibacterial activity against Haemophilus influenzae ARC737 by broth microdilution method; format: functional
[11] = Volume of distribution at steady state in Wistar Han rat at 3 mg/kg, iv administered as 15 mins infusion by LC-MS/MS analysis; format: ADME, organism-based; settings: in vivo, read-out: Vdss
Staphylococcus aureus [12] = assay: Antibacterial activity against methicillin/quinolone-resistant Staphylococcus aureus ARC517 by broth microdilution method; format: functional
[13] = Protein binding in rat plasma assessed as unbound fraction at 10 uM measured after 16 hrs by LC-MS/MS based equilibrium dialysis method; format: ADME, cell-free
Staphylococcus aureus [14] = assay: Antibacterial activity against methicillin sensitive Staphylococcus aureus ARC516 infected in CD-1 mouse neutropenic thigh infection model assessed as reduction in colony forming unit at 25 to 50 mg/kg, ip measured after 24 hrs; format: functional, organism-based
[15] = Half life in Wistar Han rat at 3 mg/kg, iv administered as 15 mins infusion by LC-MS/MS analysis; format: ADME, organism-based; settings: in vivo
L5178Y = assay: Genotoxicity in mouse L5178Y cells using DAPI staining by microscopy based micronucleation assay; format: toxicity, cell-based
[16] = Protein binding in mouse plasma assessed as unbound fraction at 10 uM measured after 16 hrs by LC-MS/MS based equilibrium dialysis method; format: ADME, cell-free
Streptococcus pyogenes = assay: Antibacterial activity against Streptococcus pyogenes ARC838 by broth microdilution method; format: functional
[17] = Protein binding in human plasma assessed as unbound fraction at 10 uM measured after 16 hrs by LC-MS/MS based equilibrium dialysis method; format: ADME, cell-free
[18] = Plasma clearance in CD-1 mouse at 3 mg/kg, iv administered as 15 mins infusion by LC-MS/MS analysis; format: ADME, organism-based; settings: in vivo, 0.25 h
[19] = n-octanol/phosphate buffer partition coefficient, log D of the compound at pH 7.4 measured after 1 hr by UV-LC/MS based shake flask method; format: physicochemical
Staphylococcus aureus [20] = assay: Antibacterial activity against methicillin sensitive Staphylococcus aureus ARC516 by broth microdilution method; format: functional
[21] = Volume of distribution at steady state in CD-1 mouse at 3 mg/kg, iv administered as 15 mins infusion by LC-MS/MS analysis; format: ADME, organism-based; settings: in vivo, read-out: Vdss
Staphylococcus aureus [22] = assay: Antibacterial activity against methicillin sensitive Staphylococcus aureus ARC516 infected in CD-1 mouse neutropenic thigh infection model assessed as log reduction in colony forming unit at 150 mg/kg, ip measured after 24 hrs relative to initial treatment control; format: functional; settings: dose mg/kg 25-150
[23] = Plasma clearance in Wistar Han rat at 3 mg/kg, iv administered as 15 mins infusion by LC-MS/MS analysis; format: ADME, organism-based; set-up: unit not given here; settings: in vivo, 0.25 h
Staphylococcus aureus [24] = assay: Antibacterial activity against methicillin sensitive Staphylococcus aureus ARC516 infected in CD-1 mouse neutropenic thigh infection model assessed as log reduction in colony forming unit at 100 mg/kg, ip bid in presence of ABT relative to initial treatment control; format: functional
[25] = Ratio of MIC for antibacterial activity against methicillin/quinolone-resistant Staphylococcus aureus ARC517 to protein binding in human plasma assessed as unbound fraction
Staphylococcus aureus [26] = assay: Antibacterial activity against methicillin sensitive Staphylococcus aureus ARC516 infected in CD-1 mouse neutropenic thigh infection model assessed as reduction in colony forming unit at 20 mg/kg, ip bid in presence of ABT; format: functional, organism-based
Staphylococcus aureus [27] = assay: Antibacterial activity against methicillin sensitive Staphylococcus aureus ARC516 infected in CD-1 mouse neutropenic thigh infection model assessed as reduction in colony forming unit at 10 to 25 mg/kg, ip measured after 24 hrs; format: functional, organism-based
Staphylococcus aureus [28] = assay: Antibacterial activity against methicillin sensitive Staphylococcus aureus ARC516 infected in CD-1 mouse neutropenic thigh infection model assessed as log reduction in colony forming unit at 50 to 75 mg/kg, ip measured after 24 hrs relative to untreated control; format: functional; settings: dose mg/kg 50-75
Staphylococcus aureus [29] = assay: Antibacterial activity against methicillin sensitive Staphylococcus aureus ARC516 infected in CD-1 mouse neutropenic thigh infection model assessed as log reduction in colony forming unit at 50 to 75 mg/kg, ip measured after 24 hrs relative to initial treatment control; format: functional; settings: dose mg/kg 50-75

Structure (SMILES)	CL free [1] [mL/h/kg]	bioavailability [2] [%]	MIC (Streptococcus pneumoniae) [µM]	MIC (Staphylococcus aureus [3]) [µM]	MIC (Escherichia coli) [µM]	solubility [5] [µM]	half-life [6] [h]	pIC50 [9]	bioavailability [10] [%]	MIC (Haemophilus influenzae) [µM]	Vd [11] [L/kg]	MIC (Staphylococcus aureus [12]) [µM]	fraction unbound at 16 h, 10 µM [13]	half-life [15] [h]	NOAEL (L5178Y) [µM]	fraction unbound at 16 h, 10 µM [16]	fraction unbound at 16 h, 10 µM [17]	CL [18] [mL/h/kg]	logD at 1 h [19]	MIC (Staphylococcus aureus [20]) [µM]	further results
COc1ncnn1-c1noc2c(F)c3c(cc12)CC1(C(=O)NC(=O)NC1=O)[C@H]1[C@H](C)O[C@H](C)CN31	3.3	62	0.39 (≈ 0.189 µg/mL)	0.39	30 (≈ 14.6 µg/mL)	900 (≈ 437 µg/mL)	2.52	6.49	48	0.78 (≈ 0.379 µg/mL)	1.9	0.39 (≈ 0.189 µg/mL)	0.13	1.69	25	0.2	0.14	0.66	1.7	0.098 (≈ 0.0476 µg/mL)	log(activity) (Staphylococcus aureus [4]): 4.5; log(activity) (Staphylococcus aureus [7]): 1; CL free [8]: 93; Activity (Staphylococcus aureus [14]): inactive; MIC (Streptococcus pyogenes): 0.39 µM (≈ 0.189 µg/mL); Vd [21]: 2.4 L/kg; log(activity) (Staphylococcus aureus [22]): 2; CL [23]: 13
C[C@@H]1CN2c3c(cc4c(N5C(=O)OC[C@@H]5C)noc4c3F)CC3(C(=O)NC(=O)NC3=O)[C@H]2[C@H](C)O1 [ZOLIFLODACIN]	20.1	43.5		0.39	6.2 (≈ 3.02 µg/mL)		0.61	6.77	31		1.5	0.78 (≈ 0.38 µg/mL)	0.13	0.79	> 400	0.17	0.18	3.42	1.7	0.2 (≈ 0.0975 µg/mL)	log(activity) (Staphylococcus aureus [24]): 1.8; Ratio [25]: 4.3; Activity (Staphylococcus aureus [26]): Active; Vd [21]: 3 L/kg
C[C@@H]1CN2c3c(cc4c(-n5cncn5)noc4c3F)CC3(C(=O)NC(=O)NC3=O)[C@H]2[C@H](C)O1	10.5	37	0.39 (≈ 0.178 µg/mL)	< 0.2	12.5 (≈ 5.69 µg/mL)	250 (≈ 114 µg/mL)		6.66	62	0.39 (≈ 0.178 µg/mL)	1.9	0.2 (≈ 0.0911 µg/mL)	0.1	2.41	< 6	0.12	0.13	1.26	1.7	0.049 (≈ 0.0223 µg/mL)	Activity (Staphylococcus aureus [27]): Active; Ratio [25]: 1.4; log(activity) (Staphylococcus aureus [28]): 4; MIC (Streptococcus pyogenes): 0.39 µM (≈ 0.178 µg/mL); log(activity) (Staphylococcus aureus [29]): >2
